The numbers were not newly measured in patent publication US20030108955A1, “Dioxin derivatives and method of measurement therewith” (priority 2000, published 2003), which cites them from elsewhere.

For the data set the following is noted: general knowledge.

`O=C(O)CCCC[C@@H]1SC[C@@H]2NC(=O)N[C@@H]21` [biotin]: the water solubility result is “insoluble to water”.
